What all share (assay): in vitro antibacterial activity, MIC in microtiter
The subject of experiment [1] is Strep. pneumoniae UC41 (L 44). Type of experiment: cell-based. Particulars: Todd-Wewitt broth, 0.01% bovine serum albumin, 37° C. 18-24 hours. As to the method: (§1) The in vitro antibacterial activity of the compounds is determined by means of standard […] tests in microtiter. Iso-Sensitest broth (Oxoid) is used for all bacteria except streptococci (Todd-Wewitt broth, Difco) and enterococci (Mueller-Hinton, Difco). Broth cultures are diluted so that the final inoculum is about 5×10^5 cfu/ml (colony forming units per ml). All broth microdilution MICs are performed in the presence of 0.01% bovine serum albumin (Pentax fraction V, Sigma).

The subject of experiment [2] is Staph. aureus Tour (L 165). In kind it is cell-based. The conditions noted are these: Iso-Sensitest broth, 0.01% bovine serum albumin, 37° C. 18-24 hours. As to the method:
as §1

The subject of experiment [3] is S. aureus clin. isol. (L 561). In kind it is cell-based. The conditions noted are these: Iso-Sensitest broth, 0.01% bovine serum albumin, 37° C. 18-24 hours. The protocol: as §1
Experiment [4] deals with Enterococcus faecalis ATCC 7,080 (L 149). In kind it is cell-based. The conditions noted are these: Mueller-Hinton, 0.01% bovine serum albumin, 37° C. 18-24 hours. As to the method:
as §1

Experiment [5] has as its system Strep. pyogenes C203 (L 49). Type of experiment: cell-based. The conditions noted are these: Todd-Wewitt broth, 0.01% bovine serum albumin, 37° C. 18-24 hours. The protocol: as §1
For experiment [6], the system named is S. haemolyticus clin, isol. (L 602). Type of experiment: cell-based. Particulars: Iso-Sensitest broth, 0.01% bovine serum albumin, 37° C. 18-24 hours. As to the method:
as §1

Experiment [7] relates to S. epidermidis ATCC 12,228 (L 147). In kind it is cell-based. Particulars: Iso-Sensitest broth, 0.01% bovine serum albumin, 37° C. 18-24 hours. The protocol:
as §1

Experiment [8] concerns S. epidermidis clin. isol. (L 533). In kind it is cell-based. Particulars: Iso-Sensitest broth, 0.01% bovine serum albumin, 37° C. 18-24 hours. The protocol:
as §1

For experiment [9], the system named is E. faecalis clin. isol. (L 502). In kind it is cell-based, Enterococcus faecalis. Particulars: Mueller-Hinton, 0.01% bovine serum albumin, 37° C. 18-24 hours. The protocol: as §1
Experiment [10] concerns S. aurens Smith (L 819). Type of experiment: cell-based. Particulars: Iso-Sensitest broth, 0.01% bovine serum albumin, 37° C. 18-24 hours. The protocol: The in vitro antibacterial activity of the compounds is determined by means of standard […] tests in microtiter. Iso-Sensitest broth (Oxoid) is used for all bacteria except streptococci (Todd-[…] broth, Difco) and enterococci (Mueller-Hinton, Difco). Broth cultures are diluted so that the final inoculum is about 5×10^5 cfu/ml (colony forming units per ml).

≈ marks a conversion by molar mass, not a printed value.

From patent US5684127A, “Tetrapeptides deriving from dalbaheptide antibiotics” (Gruppo Lepetit SpA, priority 1995, dated 1997) come the findings set out here.

As a reminder, the MIC is the least concentration at which growth counts as inhibited. A higher MIC goes with a need for much substance. As for “(L-phenylalanyl)^3 -(D-lysyl)^15 -aglucoteicoplanin dalbaheptide methyl ester”, the MIC in experiment [1] stood at 0.13 mg/L; in experiment [2], 0.13 mg/L; in experiment [3], 0.06 mg/L; in [4], 0.5 mg/L; in [5] it was 0.25 mg/L; in experiment [6] it was 0.5 mg/L. The MIC in [7] was determined as 0.13 mg/L; in experiment [8], 0.13 mg/L; in experiment [9] it was 16 mg/L; in [10] it was 0.13 mg/L.
With teicoplanin, the MIC in experiment [1] was determined as 0.13 mg/L; in [2], 0.13 mg/L; in [3], 8 mg/L; in experiment [4], 0.13 mg/L; in experiment [5] it was 0.13 mg/L; in experiment [6], 32 mg/L. Besides, the MIC in experiment [7] worked out at 8 mg/L; in [8], 8 mg/L; in [10], 0.25 mg/L.
Take `N[C@H]1C(=O)N[C@@H]2Cc3ccc(c(Cl)c3)Oc3cc4cc(c3O)Oc3ccc(cc3Cl)[C@@H](O)[C@@H]3NC(=O)[C@H](NC(=O)[C@@H]4NC(=O)[C@@H](NC2=O)c2cc(O)cc(c2)Oc2cc1ccc2O)c1ccc(O)c(c1)-c1c(O)cc(O)cc1[C@@H](C(=O)O)NC3=O` [teicoplanin aglycon]: the MIC in experiment [1] came out at 0.13 mg/L (≈ 0.108 µM); in [2], 0.13 mg/L (≈ 0.108 µM); in experiment [3] it was 0.13 mg/L (≈ 0.108 µM); in experiment [4], 0.13 mg/L (≈ 0.108 µM); in [5], 0.13 mg/L (≈ 0.108 µM); in experiment [6], 0.25 mg/L (≈ 0.209 µM). For the same compound, the MIC in [7] came to 0.06 mg/L (≈ 0.05 µM); in experiment [8], 0.016 mg/L (≈ 0.0133 µM); in [10] it was 0.06 mg/L (≈ 0.05 µM).
